Key:
[1] = tested on: Pseudomonas aeruginosa DSM 1117; test: Antibacterial growth assay (OD600); conditions: OD600, medium = 100, MH II broth, 37 °C, peptide 200 µM mixed 50 µL + 50 µL with bacteria, Figure 7: 48 h
A/Hessen/1/2003 (H3N2) = assay type: cell-based, influenza virus
[2] = tested on: Staphylococcus epidermidis DSM 28319; test: Antibacterial growth assay (OD600); conditions: OD600, medium = 100, MH II broth, 37 °C, peptide 200 µM mixed 50 µL + 50 µL with bacteria, Figure 7: 48 h
Protocol: (§1) Cryo-conserved cultures of selected bacterial strains (Table 4) were transferred to Tryptic Soy Agar (TSA) plates (Carl Roth) with a sterile inoculation loop, sealed with Parafilm (BEMIS, Neenah, WI, USA), and incubated for 1–2 days at 37 °C depending on growth. Single colonies were picked and transferred into 2–3 mL of the Mueller–Hinton II (MH II) broth (BD, Heidelberg, Germany). The bacteria were cultivated overnight, subcultured on fresh medium and grown for 3–4 h before testing at 37 °C, with shaking at 180 rpm. We measured the optical density at 600 nm (OD600) of 1 mL of the bacterial suspensions in polystyrene cuvettes (SARSTED, Nümbrecht, Germany) using an Ultrospec 10 spectrophotometer (Biochrome, Cambridge, UK). We then diluted them with the MH II medium to the preferred OD600 (Table 2). The peptides were dissolved in DMSO to generate 10 mmol/L stocks and diluted with the MH II medium to 200 µM before the assay. We used 10 µg/mL (~40 µg/mL for S. epidermidis) gentamicin and colistin (Sigma-Aldrich, Taufkirchen, Germany), DMSO and the medium only as controls. The bacteria were transferred to 96-multiwell plates with a final volume of 100 µL per well (50 µL bacterial suspension, and 50 µL test peptide). The OD600 was measured at 0, 24 and 48 h using a BioTek Eon microplate reader followed by analysis with Gen5 v2.09.

[3] = tested on: Escherichia coli BL21(DE3); test: Antibacterial growth assay (OD600); conditions: OD600, medium = 100, MH II broth, 37 °C, peptide 200 µM mixed 50 µL + 50 µL with bacteria, Figure 7: 48 h
Protocol: as §1

[4] = tested on: Listeria monocytogenes DSM 20600; test: Antibacterial growth assay (OD600); conditions: OD600, medium = 100, MH II broth, 37 °C, peptide 200 µM mixed 50 µL + 50 µL with bacteria, Figure 7: 48 h
Protocol: as §1

[5] = tested on: Pseudomonas aeruginosa DSM 50071; test: Antibacterial growth assay (OD600); conditions: OD600, medium = 100, MH II broth, 37 °C, peptide 200 µM mixed 50 µL + 50 µL with bacteria, Figure 7: 48 h
[6] = tested on: panel of seven bacterial strains; test: Antibacterial growth assay (OD600), statements on the whole panel; assay type: cell-based; conditions: growth after 48 h
A/Hamburg/05/2009 (H1N1) = assay type: cell-based, influenza virus
[7] = tested on: Staphylococcus aureus DSM 2569; test: Antibacterial growth assay (OD600); conditions: OD600, medium = 100, MH II broth, 37 °C, peptide 200 µM mixed 50 µL + 50 µL with bacteria, Figure 7: 48 h
[8] = tested on: Micrococcus luteus DSM 20030; test: Antibacterial growth assay (OD600)
G. mellonella larvae = test: Insecticidal activity by injection into larvae; assay type: in vivo, Galleria mellonella; conditions: 50 ng peptide injected, 3 cohorts of 10 larvae, survival monitored for 5 days
Protocol: Insecticidal activity was determined using fourth and fifth instar G. mellonella larvae (L4/L5) obtained from Fauna Topics Zoobedarf Zucht und Handels GmbH (Marbach am Neckar, Germany). Because spider venom is injected via chelicerae, we opted for an injection-based assay to reflect the natural process of envenomation as described earlier. The peptides were dissolved in a 1:1 mixture of DMSO and water to a final concentration of 10 mmol/L. We injected 50 ng of each peptide into the pseudopodium using Omnican-F, 0.30 × 12 mm/G 30 × 1/2”, a 1 mL syringe adjusted to a WPI manual microsyringe injector setup. Injections with water, DMSO/water (1:1) and ethanol (90%) were used as controls, alongside untreated specimens. Insecticidal activity screenings were performed in cohorts of 10 larvae with 3 replicates (30 specimens per treatment or control). […] Survival was monitored every 24 h for 5 days. Mortality was calculated based on the ratio of dead to injected specimens.

[9] = tested on: B/Malaysia/2506/2004 (B-Mal); assay type: cell-based, influenza virus

SLLGLLDVVKNTVGQT [LS-AMP-A10]
Bacterial growth relative to medium, P. aeruginosa (1117), replicate 1 ([1]; replicate column 1): 65.0772
Bacterial growth relative to medium, P. aeruginosa (1117), replicate 2 ([1]; replicate column 2): 90.1148
Bacterial growth relative to medium, P. aeruginosa (1117), replicate 3 ([1]; replicate column 3): 64.0892
Viability of infected cells relative to aprotinin, Replicate 1 (A/Hessen/1/2003 (H3N2)): 0.05441
Viability of infected cells relative to aprotinin, Replicate 2 (A/Hessen/1/2003 (H3N2)): 0.1761
Viability of infected cells relative to aprotinin, Replicate 3 (A/Hessen/1/2003 (H3N2)): 0.1729
Viability of infected cells relative to aprotinin, Replicate 4 (A/Hessen/1/2003 (H3N2); […], replicate 4 (additional internal control)): 0.1942
Bacterial growth relative to medium, S. epidermidis, replicate 1 ([2]; replicate column 1): 79.4001
Bacterial growth relative to medium, S. epidermidis, replicate 2 ([2]; replicate column 2): 71.0012
Bacterial growth relative to medium, S. epidermidis, replicate 3 ([2]; replicate column 3): 83.073
Bacterial growth relative to medium, E. coli, replicate 1 ([3]; replicate column 1): 81.6291
Bacterial growth relative to medium, E. coli, replicate 2 ([3]; replicate column 2): 64.3105
Bacterial growth relative to medium, E. coli, replicate 3 ([3]; replicate column 3): 57.0069
Bacterial growth relative to medium, L. monocytogenes, replicate 1 ([4]; replicate column 1): 109.148
Bacterial growth relative to medium, L. monocytogenes, replicate 2 ([4]; replicate column 2): 78.161
Bacterial growth relative to medium, L. monocytogenes, replicate 3 ([4]; replicate column 3): 28.6946
Bacterial growth relative to medium, P. aeruginosa (50071), replicate 1 ([5]; replicate column 1): 97.2952
Bacterial growth relative to medium, P. aeruginosa (50071), replicate 2 ([5]; replicate column 2): 110.352
Bacterial growth relative to medium, P. aeruginosa (50071), replicate 3 ([5]; replicate column 3): 83.9978
Antibacterial activity over the panel (in words) [6]: inhibited the growth of most of the bacteria except two
Viability of infected cells relative to aprotinin, Replicate 1 (A/Hamburg/05/2009 (H1N1)): 0.0352
Viability of infected cells relative to aprotinin, Replicate 2 (A/Hamburg/05/2009 (H1N1)): 0.02417
Viability of infected cells relative to aprotinin, Replicate 3 (A/Hamburg/05/2009 (H1N1)): 0.03391
Bacterial growth relative to medium, S. aureus, replicate 1 ([7]; replicate column 1): 64.1206
Bacterial growth relative to medium, S. aureus, replicate 2 ([7]; replicate column 2): 64.9771
Bacterial growth relative to medium, S. aureus, replicate 3 ([7]; replicate column 3): 91.1709
Antibacterial activity (in words) ([8]; M. luteus DSM 20030, growth after 48 h): no activity
Bacterial growth relative to medium, M. luteus, replicate 1 ([8]; OD600, medium = 100, MH II broth, 37 °C, peptide 200 µM mixed 50 µL + 50 µL with bacteria, Figure 7: 48 h, replicate column 1): 61.1915
Bacterial growth relative to medium, M. luteus, replicate 2 ([8]; OD600, medium = 100, MH II broth, 37 °C, peptide 200 µM mixed 50 µL + 50 µL with bacteria, Figure 7: 48 h, replicate column 2): 88.7389
Bacterial growth relative to medium, M. luteus, replicate 3 ([8]; OD600, medium = 100, MH II broth, 37 °C, peptide 200 µM mixed 50 µL + 50 µL with bacteria, Figure 7: 48 h, replicate column 3): 35.3419
Insecticidal effect on larvae (in words) (G. mellonella larvae): Individual dead insects
Viability of infected cells relative to aprotinin, Replicate 1 [9]: 0.07328
Viability of infected cells relative to aprotinin, Replicate 2 [9]: 0.09773
Viability of infected cells relative to aprotinin, Replicate 3 [9]: 0.07183
